Experimental data: patent US20150164910A1, “ANTIVIRAL COMPOUNDS AND METHODS OF USE” (The Regents of the University of Califonia, priority 2012, published 2015)

Assays:
CVB3-H3 = test: Plaque reduction assay, CVB3-H3 in HeLa-RW cells; type: cell-based, coxsackievirus B3; conditions: compound added 30 min before infection, CVB3-H3 MOI 1, HeLa-RW, 6 hours; log10(titer with DMSO only/titer with inhibitor)
[1] = tested on: eGFP-expressing recombinant CVB3; type: cell-based, coxsackievirus B3; conditions: for Inhibition of infected cells: eGFP-CVB3 m.o.i=1, compound added at time of infection, 6 hr post infection, 1-(% eGFP+ cells with compound/% with DMSO only)

Compound	Log10 reduction of virus titer (CVB3-H3)	% of eGFP + cells, 0 Hr ([1]; compound added 0 hr post infection at its peak activity concentration, read 6 hr post infection, DMSO 26.0) [%]	% of eGFP + cells, 1 Hr ([1]; compound added 1 hr post infection at its peak activity concentration, read 6 hr post infection, DMSO 23.7) [%]	% of eGFP + cells, 2 Hr ([1]; compound added 2 hr post infection at its peak activity concentration, read 6 hr post infection, DMSO 24.8) [%]	Inhibition of infected cells [1] [%]
1-Isopropyl- N,6-diphenyl-1H- pyrazolo[3,4-b] pyridine- 4-carboxamide [Compound 16]	4.5	0.0	0.1	0.0	100
Cc1ccc(F)cc1NC(=O)c1cc(-c2cccs2)nc2c1cnn2C(C)C [Compound 2, N-(5-Fluoro-2-methylphenyl)-1-isopropyl-6-(2-thienyl)-1H-pyrazolo[3,4-b] pyridine-4-carboxamide]	4.4				99.6
Cc1cc(F)ccc1NC(=O)c1cc(-c2cccs2)nc2c1cnn2C(C)C [Compound 4, N-(4-Fluoro-2-methylphenyl)-1-isopropyl-6-(2-thienyl)-1H-pyrazolo[3,4-b] pyridine-4-carboxamide]	4.5				100
Cc1ccc(NC(=O)c2cc(-c3cccs3)nc3c2cnn3C(C)C)c(F)c1 [Compound 5, N-(2-Fluoro-4-methylphenyl)-1-isopropyl-6-(2-thienyl)-1H-pyrazolo[3,4-b] pyridine-4-carboxamide]	4.4				99.3
CC(C)n1ncc2c(C(=O)Nc3ccc(F)cc3Cl)cc(-c3cccs3)nc21 [Compound 6, N-(2-Chloro-4-fluorophenyl)-1-isopropyl-6-(2-thienyl)-1H-pyrazolo[3,4-b] pyridine-4-carboxamide]	4.3				99.5
COc1ccc(NC(=O)c2cc(-c3cccs3)nc3c2cnn3C(C)C)cc1 [Compound 7, 1-Isopropyl-N-(4-methoxyphenyl)-6-(2-thienyl)-1H-pyrazolo [3,4-b]pyridine-4-carboxamide]	4.3				99.5
COc1cccc(NC(=O)c2cc(-c3cccs3)nc3c2cnn3C(C)C)c1 [Compound 8, 1-Isopropyl-N-(3-methoxyphenyl)-6-(2-thienyl)-1H-pyrazolo [3,4-b]pyridine-4-carboxamide]	4.4				99.2
Cc1ccc(NC(=O)c2cc(-c3cccs3)nc3c2cnn3C(C)C)cc1S(N)(=O)=O [Compound 9, 1-Isopropyl-N-(4-methyl-3-sulfamoylphenyl)-6-(2-thienyl)-1H-pyrazolo[3,4-b] pyridine-4-carboxamide]	4.5				100
CC(C)n1ncc2c(C(=O)Nc3cccc(S(C)(=O)=O)c3)cc(-c3cccs3)nc21 [Compound 10, 1-lsopropyl-N-[3-(methylsulfonyl)phenyl]-6-(2-thienyl)-1H-pyrazolo [3,4-b]pyridine-4-carboxamide]	4.4				100
Cc1ccc(NC(=O)c2cc(C3CC3)nc3c2cnn3C(C)C)cc1S(N)(=O)=O [Compound 11, 6-Cyclopropyl-1-isopropyl-N-(4-methyl-3-sulfamoylphenyl)-1H-pyrazolo[3,4-b]pyridine-4-carboxamide]	4.1				99.6
Cc1ccc(S(C)(=O)=O)cc1NC(=O)c1cc(C2CC2)nc2c1cnn2C(C)C [Compound 12, 6-Cyclopropyl-1-isopropyl-N-[2-methyl-5-(methylsulfonyl)phenyl]-1H-pyrazolo[3,4-b] pyridine-4-carboxamide]	4.2				100
CC1Oc2ccc(NC(=O)c3cc(C4CC4)nc4c3cnn4C(C)C)cc2NC1=O (stereo not drawn) [Compound 13, 6-Cyclopropyl-1-isopropyl-N-(2-methyl-3-oxo-3,4-dihydro-2H-1,4-benzoxazin-6-yl)-1H-pyrazolo [3,4-b]pyridine-4-carboxamide]	4.2				100
CC(C)n1ncc2c(C(=O)Nc3cccc(-c4nnc5n4CCCCC5)c3)cc(C3CC3)nc21 [Compound 14, 6-Cyclopropyl-1-isopropyl-N-[3-(6,7,8,9-tetrahydro-5H-[1,2,4]triazolo [4,3-a]azepin-3-yl)phenyl]-1H-pyrazolo [3,4-b]pyridine-4-carboxamide]	3.3				100
CC(C)c1cc(C(=O)Nc2ccccc2N2CCN(C)CC2)c2cnn(C(C)C)c2n1 [Compound 15, 1,6-Diisopropyl-N-[2-(4-methyl-1-piperazinyl)phenyl)-1H-pyrazolo[3,4-b]pyridine-4-carboxamide]	2.4				100
CC(C)n1ncc2c(C(=O)Nc3cccc(-c4nnco4)c3)cc(-c3ccccc3)nc21 [Compound 17, 1-Isopropyl-N-[3-(1,3,4-oxadiazol-2-yl)phenyl]-6-phenyl-1H-pyrazolo[3,4-b]pyridine-4-carboxamide]	4.3				99.6
CC(C)c1cc(C(=O)Nc2cccc(N3CCCC3=O)c2)c2cnn(C(C)C)c2n1 [Compound 18, 1,6-Diisopropyl-N-[3-(2-oxo-1-pyrrolidinyl)phenyl]-1H-pyrazolo[3,4-b]pyridine-4-carboxamide]	4.0				97.9

Compound	Log10 reduction of virus titer (CVB3-H3)	% of eGFP + cells, 0 Hr ([1]; compound added 0 hr post infection at its peak activity concentration, read 6 hr post infection, DMSO 26.0) [%]	% of eGFP + cells, 1 Hr ([1]; compound added 1 hr post infection at its peak activity concentration, read 6 hr post infection, DMSO 23.7) [%]	% of eGFP + cells, 2 Hr ([1]; compound added 2 hr post infection at its peak activity concentration, read 6 hr post infection, DMSO 24.8) [%]	Inhibition of infected cells [1] [%]
CCn1ncc2c(C(=O)Nc3ccc(C)c(S(N)(=O)=O)c3)cc(-c3cccs3)nc21 [Compound 19, 1-Ethyl-N-(4-methyl-3-sulfamoylphenyl)-6-(2-thienyl)-1H-pyrazolo[3,4-b] pyridine-4-carboxamide]	4.3				100
CCn1ncc2c(C(=O)Nc3ccc(C#N)cc3)cc(-c3cccs3)nc21 [Compound 20, N-(4-Cyanophenyl)-1-ethyl-6-(2-thienyl)-1H-pyrazolo [3,4-b]pyridine-4-carboxamide]	1.9				99.6
CC/C(C)=N\NC(=O)c1cc(-c2cccs2)nc2ccccc12 [Compound 24, N′-[(2Z)-2-Butanylidene]-2-(2-thienyl)-4-quinoline-carbohydrazide]	4.0				100
NNC(=O)c1cc(-c2ccccc2)nc2ccccc12 [Compound 26, 2-Phenyl-4-quinoline-carbohydrazide]	2.5				98.7
CCS(=O)(=O)c1ccc(NC(=O)c2cc(-c3ccccc3)nc3ccccc23)cc1 [Compound 27, N-[4-(Ethylsulfonyl)phenyl]-2-phenyl-4-quinoline-carboxamide]	3.4				89.6
CS(=O)(=O)c1ccc(NC(=O)c2cc(-c3ccc(F)cc3)nc3ccccc23)cc1 [Compound 28, 2-(4-Fluorophenyl)-N-[4-(methylsulfonyl)phenyl]-4-quinolinecarboxamide]	4.5				99.6
O=C(N/N=C/c1ccc(O)cc1)c1cc(-c2ccccc2)nc2ccccc12 [Compound 29, N′-[(E)-(4-Hydroxyphenyl)methylene]-2-phenyl-4-quinoline-carbohydrazide]	3.8				100
CC1Oc2ccc(NC(=O)c3cc(-c4cccs4)nc4ccccc34)cc2NC1=O (stereo not drawn) [Compound 30, N-(2-Methyl-3-oxo-3,4-dihydro-2H-1,4-benzoxazin-6-yl)-2-(2-thienyl)-4-quinolinecarboxamide]	4.1				100
CC(=O)c1c(C)nc2ccc(Cl)cc2c1-c1ccccc1 [Compound 31, 1-(6-Chloro-2-methyl-4-phenyl-3-quinolinyl)ethanone]	3.8				94.5
Cn1ccc(NC(=O)c2cc(-c3cccs3)nc3ccccc23)n1 [Compound 32, N-(1-Methyl-1H-pyrazol-3-yl)-2-(2-thienyl)-4-quinoline-carboxamide]	4.0				100
O=C(Nc1nc(CN2CCOCC2)cs1)c1cc(-c2ccc(Cl)s2)nc2ccccc12 [Compound 34, 2-(5-Chloro-2-thienyl)-N-[4-(4-morpholinylmethyl)-1,3-thiazol-2-yl]-4-quinoline-carboxamide]	3.5				94.4
CCCCOc1cc(C(=O)NCCN(CC)CC)c2ccccc2n1 [Compound 35, 2-Butoxy-N-[2-(diethylamino)ethyl]-4-quinoline-carboxamide, reference compound]					100
Cc1ccc2nc(N3CCN(Cc4nnnn4Cc4ccccc4)CC3)c(C#N)cc2c1 [Compound 36, 2-{4-[(1-Benzyl-1H-tetrazol-5-yl)methyl]-1-piperazinyl}-6-methyl-3-quinoline-carbonitnle]	1.0				79.7
Cc1ccc2cc(CN(Cc3ccc(F)cc3)C(=O)c3cccs3)c(=O)[nH]c2c1C [Compound 37, N-[(7,8-Dimethyl-2-oxo-1,2-dihydro-3-quinolinyl)methyl]-N-(4-fluorobenzyl)-2-thiophene-carboxamide]	4.2				99.7
Cc1nc(-c2cccc(NS(=O)(=O)c3ccc4c(c3)CCC(=O)N4)c2)cs1 [Compound 38, N-[3-(2-Methyl-1,3-thiazol-4-yl)phenyl]-2-oxo-1,2,3,4-tetrahydro-6-quinoline-sulfonamide]	0.9				59.1
Br.COc1ccc(C(=O)Cn2c(=N)n(Cc3ccc(C)cc3)c3ccccc32)cc1 [Compound 39, 1-[2-(4-Methoxyphenyl)-2-oxoethyl]-3-(4-methylbenzyl)-1,3-dihydro-2H-benzimidazol-2-iminium bromide]	0.3				100
